Experimental data taken from patent US12077503B2, “Substituted cyclic amides and their use as herbicides” (FMC CORPORATION, priority 2015, dated 2024).
Where two headings read alike, the source gives them in different places.

What was measured:
Test in all cases: Test A preemergence
Format in all cases: in vivo
[1] = tested on: ragweed (common ragweed, Ambrosia elatior); details: Ambrosia artemisiifolia, pre-emergence, 240 h; for pest or weed control at 125 g/ha: 125 g ai/ha; for pest or weed control at 500 g/ha: 500 g ai/ha
Method in brief: (§1)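 Greenhouse, ~10 d after spray; visual injury vs untreated controls, 0 = no effect, 100 = complete control. Preemergence: directed soil spray over planted seeds. Postemergence: plants 2–10 cm, 1–2 leaf stage. Loam/sand blend. Compound in non-phytotoxic solvent with surfactant.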

Kochia (Kochia scoparia) = details: Bassia scoparia, pre-emergence, 240 h; for pest or weed control at 125 g/ha: 125 g ai/ha; for pest or weed control at 500 g/ha: 500 g ai/ha
Method in brief: as §1

[2] = tested on: giant foxtail (Setaria faberii); details: Setaria faberi, pre-emergence, 240 h; for pest or weed control at 125 g/ha: 125 g ai/ha; for pest or weed control at 500 g/ha: 500 g ai/ha
Method in brief: as §1

[3] = tested on: barnyardgrass (Echinochloa crus-galli); details: Echinochloa crus-galli, pre-emergence, 240 h; for pest or weed control at 125 g/ha: 125 g ai/ha; for pest or weed control at 500 g/ha: 500 g ai/ha
Method in brief: as §1

[4] = tested on: ryegrass, Italian (Italian ryegrass, Lolium multiflorum); details: Lolium multiflorum, pre-emergence, 240 h; for pest or weed control at 125 g/ha: 125 g ai/ha; for pest or weed control at 500 g/ha: 500 g ai/ha
Method in brief: as §1

[5] = preemergence, visual injury rating about 10 d after treatment, 0 to 100 scale (0 no effect, 100 complete control), read-out: Barnyardgrass plant response rating
[6] = preemergence, 0 to 100 scale where 0 is no effect and 100 is complete control, read-out: Ragweed plant response rating
[7] = Preemergence, visual injury vs untreated controls after approximately 10 d, read-out: Ragweed plant response rating (0 to 100 scale where 0 is no effect and 100 is complete control)
[8] = preemergence, 0 to 100 scale where 0 is no effect and 100 is complete control, read-out: Kochia plant response rating
[9] = Preemergence, visual injury vs untreated controls after approximately 10 d, read-out: Kochia plant response rating (0 to 100 scale where 0 is no effect and 100 is complete control)
[10] = preemergence, 0 to 100 scale where 0 is no effect and 100 is complete control, read-out: Foxtail, Giant plant response rating
[11] = Preemergence, visual injury vs untreated controls after approximately 10 d, read-out: Foxtail, Giant plant response rating (0 to 100 scale where 0 is no effect and 100 is complete control)
[12] = preemergence, 0 to 100 scale where 0 is no effect and 100 is complete control, read-out: Barnyardgrass plant response rating
[13] = Preemergence, visual injury vs untreated controls after approximately 10 d, read-out: Barnyardgrass plant response rating (0 to 100 scale where 0 is no effect and 100 is complete control)
[14] = preemergence, 0 to 100 scale where 0 is no effect and 100 is complete control, read-out: Ryegrass, Italian plant response rating
[15] = Preemergence, visual injury vs untreated controls after approximately 10 d, read-out: Ryegrass, Italian plant response rating (0 to 100 scale where 0 is no effect and 100 is complete control)
[16] = preemergence, visual injury rating, 0 to 100 scale where 0 is no effect and 100 is complete control, approximately 10 d, read-out: Ragweed plant response rating
[17] = preemergence, visual injury rating, 0 to 100 scale where 0 is no effect and 100 is complete control, approximately 10 d, read-out: Kochia plant response rating
[18] = preemergence, visual injury rating, 0 to 100 scale where 0 is no effect and 100 is complete control, approximately 10 d, read-out: Foxtail, Giant plant response rating
[19] = preemergence, visual injury rating, 0 to 100 scale where 0 is no effect and 100 is complete control, approximately 10 d, read-out: Barnyardgrass plant response rating
[20] = preemergence, visual injury rating, 0 to 100 scale where 0 is no effect and 100 is complete control, approximately 10 d, read-out: Ryegrass, Italian plant response rating
[21] = preemergence, 0 to 100 scale where 0 is no effect and 100 is complete control, approx. 10 d, read-out: Ragweed plant response rating
[22] = preemergence, 0 to 100 scale where 0 is no effect and 100 is complete control, approx. 10 d, read-out: Kochia plant response rating
[23] = preemergence, 0 to 100 scale where 0 is no effect and 100 is complete control, approx. 10 d, read-out: Foxtail, Giant plant response rating
[24] = preemergence, 0 to 100 scale where 0 is no effect and 100 is complete control, approx. 10 d, read-out: Barnyardgrass plant response rating
[25] = preemergence, 0 to 100 scale where 0 is no effect and 100 is complete control, approx. 10 d, read-out: Ryegrass, Italian plant response rating

Row | SMILES | pest or weed control at 125 g/ha [1, 6] | pest or weed control at 500 g/ha [1, 7] | pest or weed control at 125 g/ha (Kochia (Kochia scoparia); [8]) | pest or weed control at 500 g/ha (Kochia (Kochia scoparia); [9]) | pest or weed control at 125 g/ha [2, 10] | pest or weed control at 500 g/ha [2, 11] | pest or weed control at 125 g/ha [3, 12] | pest or weed control at 500 g/ha [3, 13] | pest or weed control at 125 g/ha [4, 14] | pest or weed control at 500 g/ha [4, 15] | pest or weed control at 500 g/ha [1, 6] | pest or weed control at 500 g/ha (Kochia (Kochia scoparia); [8]) | pest or weed control at 500 g/ha [2, 10] | pest or weed control at 500 g/ha [3, 12] | pest or weed control at 500 g/ha [4, 14] | also measured
1 | CC(C)COc1cccc([C@H]2CN(C)C(=O)[C@@H]2C(=O)Nc2ccccc2F)c1 [Compound 1028] |  |  |  |  |  |  |  |  |  |  |  |  |  |  |  | pest or weed control at 125 g/ha ([1]; Preemergence, visual injury rating after approximately 10 d, read-out: Ragweed plant response rating (0 to 100 scale, 0 is no effect, 100 is complete control)): 0%; pest or weed control at 125 g/ha (Kochia (Kochia scoparia); Preemergence, visual injury rating after approximately 10 d, read-out: Kochia plant response rating (0 to 100 scale, 0 is no effect, 100 is complete control)): 0%; pest or weed control at 500 g/ha (Kochia (Kochia scoparia); preemergence, visual injury rating about 10 d after treatment, 0 to 100 scale (0 no effect, 100 complete control), read-out: Kochia plant response rating): 60%; pest or weed control at 125 g/ha ([2]; Preemergence, visual injury rating after approximately 10 d, read-out: Foxtail, Giant plant response rating (0 to 100 scale, 0 is no effect, 100 is complete control)): 90%; pest or weed control at 500 g/ha ([2]; preemergence, visual injury rating about 10 d after treatment, 0 to 100 scale (0 no effect, 100 complete control), read-out: Foxtail, Giant plant response rating): 90%; pest or weed control at 125 g/ha ([3]; Preemergence, visual injury rating after approximately 10 d, read-out: Barnyardgrass plant response rating (0 to 100 scale, 0 is no effect, 100 is complete control)): 90%; pest or weed control at 500 g/ha [3, 5]: 90%; pest or weed control at 125 g/ha ([4]; Preemergence, visual injury rating after approximately 10 d, read-out: Ryegrass, Italian plant response rating (0 to 100 scale, 0 is no effect, 100 is complete control)): 30%; pest or weed control at 500 g/ha ([4]; preemergence, visual injury rating about 10 d after treatment, 0 to 100 scale (0 no effect, 100 complete control), read-out: Ryegrass, Italian plant response rating): 30%
2 | COc1c(F)ccc([C@H]2CNC(=O)[C@@H]2C(=O)Nc2ccccc2F)c1Cl [Compound 881] | 0% | 0% | 30% | 60% | 80% | 90% | 80% | 90% | 30% | 60% |  |  |  |  |  | 
3 | COc1cc(C(F)(F)F)ccc1[C@H]1CNC(=O)[C@@H]1C(=O)Nc1ccccc1F [Compound 1202] |  |  |  |  |  |  |  |  |  |  | 90% | 60% | 90% | 90% | 60% | pest or weed control at 125 g/ha [1, 16]: 0%; pest or weed control at 125 g/ha (Kochia (Kochia scoparia); [17]): 20%; pest or weed control at 125 g/ha [2, 18]: 50%; pest or weed control at 125 g/ha [3, 19]: 90%; pest or weed control at 125 g/ha [4, 20]: 0%
4 | Cc1cc(C)cc([C@H]2CNC(=O)[C@@H]2C(=O)Nc2ccccc2C(F)(F)F)c1 [Compound 909] | 0% | 20% | 0% | 50% | 90% | 90% | 70% | 80% | 0% | 30% |  |  |  |  |  | 
5 | CC(C)c1cccc([C@H]2CN(C)C(=O)[C@@H]2C(=O)Nc2ccccc2S(C)(=O)=O)c1 [Compound 820] | 20% | 60% | 70% | 80% | 90% | 100% | 90% | 100% | 60% | 80% |  |  |  |  |  | 
6 | O=C1NC[C@H](c2csc(C(F)F)c2)[C@H]1C(=O)Nc1ccccc1F [Compound 1118] |  |  |  |  |  |  |  |  |  |  | 60% | 70% | 90% |  | 50% | pest or weed control at 125 g/ha [1, 21]: 20%; pest or weed control at 125 g/ha (Kochia (Kochia scoparia); [22]): 0%; pest or weed control at 125 g/ha [2, 23]: 60%; pest or weed control at 125 g/ha [3, 24]: 80%; pest or weed control at 500 g/ha [3, 5]: 90%; pest or weed control at 125 g/ha [4, 25]: 40%
7 | CC(C)c1cccc([C@H]2CN(C)C(=O)[C@@H]2C(=O)Nc2ccc(F)cc2F)c1 [Compound 821] | 0% | 0% | 70% | 90% | 90% | 100% | 90% | 90% | 80% | 90% |  |  |  |  |  | 
8 | CCc1cc([C@H]2CN(C)C(=O)[C@@H]2C(=O)Nc2cccc(F)c2F)cs1 [Compound 1157] |  |  |  |  |  |  |  |  |  |  | 80% | 90% | 100% | 90% | 90% | pest or weed control at 125 g/ha [1, 21]: 0%; pest or weed control at 125 g/ha (Kochia (Kochia scoparia); [22]): 90%; pest or weed control at 125 g/ha [2, 23]: 90%; pest or weed control at 125 g/ha [3, 24]: 90%; pest or weed control at 125 g/ha [4, 25]: 30%
9 | CSc1ccccc1NC(=O)[C@H]1C(=O)N(C)C[C@@H]1c1ccc(OC(F)F)cc1 [Compound 1212] |  |  |  |  |  |  |  |  |  |  | 90% | 100% | 100% | 100% | 70% | pest or weed control at 125 g/ha [1, 16]: 40%; pest or weed control at 125 g/ha (Kochia (Kochia scoparia); [17]): 100%; pest or weed control at 125 g/ha [2, 18]: 90%; pest or weed control at 125 g/ha [3, 19]: 80%; pest or weed control at 125 g/ha [4, 20]: 0%
